One may read the Ki as the dissociation constant of the complex between target and ligand, obtained from inhibition or displacement.

This note sets out measurements from patent US20070027118A1 (priority 2005, published 2007).

Like-named read-outs stand apart in the source and are kept apart here.

Experiment [1] has as its target T1, 11β-hsd-1 enzyme (Homo sapiens, UniProt P28845). Nature of the experiment: biochemical. Particulars: for inhibition at 0.1 µM: read-out: % Inh @ 0.1 μM. The method, boiled down: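 Human 11β-HSD-1 (5 nM) pre-incubated ≥30 min with inhibitor and 500 μM NADPH in triethanolamine buffer pH 8.0 with NaCl, n-dodecyl β-D-maltoside and β-ME; reaction started with G6P/G6PDH/MgCl2 regenerating system and 200 nM 3H-cortisone, run 60 min, stopped with DMSO. 3H-cortisol and substrate separated by radio-HPLC; percent inhibition from peak areas.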

The target of experiment [2] is T1, 11β-hsd-1 enzyme. Briefly: biochemical. Summed up:
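Enzyme (5 nM) pre-incubated ≥30 min at RT with inhibitor and 500 μM NADPH in triethanolamine buffer pH 8.0; reaction started with glucose-6-phosphate regenerating system and 200 nM 3H-cortisone, stopped with DMSO after 60 min. Product quantified by radio-HPLC; Kiapp from Morrison tight-binding equation.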

T1 sequence (P28845 whole entry, species assumed): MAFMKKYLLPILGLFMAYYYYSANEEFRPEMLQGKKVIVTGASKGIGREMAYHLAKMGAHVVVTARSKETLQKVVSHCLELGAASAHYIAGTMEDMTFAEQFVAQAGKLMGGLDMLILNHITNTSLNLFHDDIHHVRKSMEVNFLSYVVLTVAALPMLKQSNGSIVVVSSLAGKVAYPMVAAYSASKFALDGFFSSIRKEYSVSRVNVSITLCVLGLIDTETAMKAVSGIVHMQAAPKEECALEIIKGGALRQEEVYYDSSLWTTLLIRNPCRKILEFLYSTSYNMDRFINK

As for `CCc1cccc(NS(=O)(=O)N2CCC(c3ccc(C(=O)NC4CCCC4)cc3)CC2)n1` [Example 74, N-cyclopentyl-4-(1-{[(6-ethylpyrin-2-yl)amino]sulfonyl}pipendin-4-yl)benzamide], the inhibition on 11β-hsd-1 enzyme [1] (read-out: % Inh @ 0.1 mM) came out at 88.4%. This compound also yielded an inhibition constant (Ki) on 11β-hsd-1 enzyme [2] of 9.6 nM.

In the case of `CCc1cccc(NS(=O)(=O)N2CCC(c3ccnc(N(C)C)n3)CC2)n1` [Example 81, 4-[2-(dimethylamino)pyrimi-din-4-yl]-N-(6-ethylpyridin-2-yl)piperidine-1-sulfonamide], the inhibition on 11β-hsd-1 enzyme [1] (read-out: % Inh @ 0.1 mM) was determined as 86.8%. The compound also gave a Ki on 11β-hsd-1 enzyme [2] of 230 nM.

Turning to `Cc1ccc(C)n1-c1cccc(NS(=O)(=O)N2CCC(c3ccc(F)cc3)CC2)n1` [Example 57, N-[6-(2,5-dimethyl-1H-pyrrol-1-yl)pyridin-2-yl]-4-(4-fluorophenyl)piperidine-1-sulfonamide], the inhibition at 0.1 µM at 11β-hsd-1 enzyme [1] (Table 1, inhibitor 0.1 μM) worked out at 85%. This compound gave a Ki at 11β-hsd-1 enzyme [2] of 56 nM.

Consider `O=S(=O)(Nc1ccc2ccccc2n1)N1CCN(c2ccc(C(F)(F)F)cn2)CC1` [Example 14], for which, at 11β-hsd-1 enzyme [1], the inhibition at 0.1 µM came out at 100%. Besides, the inhibitory constant (Ki) on 11β-hsd-1 enzyme [2] was 4.8 nM.

In the case of `CCc1cccc(NS(=O)(=O)N2CCN(c3ccc(C#N)cn3)CC2)n1` [Example 3, 4-(5-cyanopyridin-2-yl)-N-(6-ethylpyridin-2-yl)piperazine-1-sulfonamide], the inhibition at 0.1 µM at 11β-hsd-1 enzyme [1] turned out to be 88.5%. At 11β-hsd-1 enzyme [2], this compound had a Ki of 9 nM.

With `CCc1cccc(NS(=O)(=O)N2CCC(CCc3ccccc3)CC2)n1` [Example 104, N-(6-ethylpyridin-2-yl)-4-(2-phenylethyl)piperidine-1-sulfonamide], at 11β-hsd-1 enzyme [1] (read-out: % Inh @ 0.1 mM), the inhibition was determined as 100%. This compound also had an inhibition constant Ki on 11β-hsd-1 enzyme [2] of 6.9 nM.

With `COc1cccc(N2CCN(S(=O)(=O)Nc3cccc(C)n3)CC2)n1` [Example 136, 4-(6-methoxypyridin-2-yl)-N-(6-methylpyridin-2-yl)piperazine-1-sulfonamide], the inhibition on 11β-hsd-1 enzyme [1] (read-out: % Inh @ 0.1 mM) was determined as 93.7%. For the same compound, at 11β-hsd-1 enzyme [2], affinity was put at a Ki of 6.5 nM.

As for `O=C(c1ccc(N2CCN(S(=O)(=O)Nc3ccc4ccccc4n3)CC2)nc1)N1CCOCC1` [Example 178, 4-[5-(morpholin-4-ylcarbonyl)pyridin-2-yl]-N-quinolin-2-ylpiperazine-1-sulfonamide], the inhibition at 11β-hsd-1 enzyme [1] (read-out: % Inh @ 0.1 mM) is 73.3%. The compound also registered a Ki at 11β-hsd-1 enzyme [2] of 190 nM.

In the case of `Cc1cccc(NS(=O)(=O)N2CCOC(COc3cc(F)cc(F)c3)C2)n1` (stereo not drawn) [Example 83, 2-[(35-difluorophenoxy)meth-yl]-N-(6-methylpyridin-2-yl)morpholine-4-sulfonamide], the inhibition on 11β-hsd-1 enzyme [1] (read-out: % Inh @ 0.1 mM) turned out to be 71.2%. This compound also yielded a Ki on 11β-hsd-1 enzyme [2] of 110 nM.

On to `O=S(=O)(Nc1ccc2ccccc2n1)N1CCCC(c2ccccc2)CC1` (stereo not drawn) [Example 97, 4-phenyl-N-quinolin-2-ylazepane-1-sulfonamide], for which the inhibition on 11β-hsd-1 enzyme [1] (read-out: % Inh @ 0.1 mM) came to 100%. Moreover, the affinity on 11β-hsd-1 enzyme [2], expressed as Ki, was 6.3 nM.

In the case of `Cc1cccc(NS(=O)(=O)N2CCN(c3nc4ccc(Cl)cc4o3)CC2)n1` [Example 138, 4-(6-chloro-13-benzoxazol-2-yl)-N-(6-methylpyridin-2-yl)piperazine-1-sulfonamide], the inhibition at 100 µM at 11β-hsd-1 enzyme [1] (Table 2, inhibitor 0.1 mM as printed, read-out: % Inh @ 0.1 mM) came to 100%. The compound further displayed a Ki at 11β-hsd-1 enzyme [2] of 8.4 nM.

Turning to `Cc1cccc(NS(=O)(=O)N2CCN(c3cccc(C)n3)CC2)n1` [Example 131, N4-bis(6-methylpyridin-2-yl)piperazine-1-sulfonamide], the inhibition on 11β-hsd-1 enzyme [1] (read-out: % Inh @ 0.1 mM) was 93.2%. Further, the affinity on 11β-hsd-1 enzyme [2], expressed as Ki, was 29 nM.

In the case of `CC(C)c1cccc(NS(=O)(=O)N2CCC(c3ccc(C#N)cn3)CC2)n1` [Example 34], the inhibition at 0.1 µM on 11β-hsd-1 enzyme [1] is 100%. The compound also showed a Ki at 11β-hsd-1 enzyme [2] of 26 nM.

As to `Cc1cccc(NS(=O)(=O)N2CCCC(c3ccccc3)CC2)n1` (stereo not drawn) [Example 84, N-(6-methylpyridin-2-yl)-4-phenylazepane-1-sulfonamide], the inhibition on 11β-hsd-1 enzyme [1] (read-out: % Inh @ 0.1 mM) is 100%. Besides, the Ki at 11β-hsd-1 enzyme [2] came to 8.2 nM.

For the compound `CCOC(=O)Cc1cccc(NS(=O)(=O)N2CCc3ccccc3CC2)n1` [Example 15, Ethyl {6-[(1,2,4,5-tetrahydro-3H-3-benzazepin-3-ylsulfonyl)amino]pyridin-2-yl}acetate], the inhibition at 0.1 µM at 11β-hsd-1 enzyme [1] came to 100%. For the same compound, on 11β-hsd-1 enzyme [2], affinity was put at a Ki of 2 nM.

With `CCc1cccc(NS(=O)(=O)N2CCC(OCc3ccccc3)CC2)n1` [Example 91, 4-(benzyloxy)-N-(6-ethylpyridin-2-yl)piperidine-1-sulfonamide], the inhibition at 11β-hsd-1 enzyme [1] (read-out: % Inh @ 0.1 mM) came out at 75.9%. On 11β-hsd-1 enzyme [2], this compound displayed a Ki of 45 nM.

Regarding `CCc1cccc(NS(=O)(=O)N2CCc3nc(-c4ccccc4)nc(C(=O)NC)c3C2)n1` [Example 148, 6-{[(6-ethylpyridin-2-yl)amino]sulfonyl}-N-methyl-2-phenyl-5678-tetrahydro-pyrido[43-d]pyrimidine-4-carboxamide], the inhibition at 11β-hsd-1 enzyme [1] (read-out: % Inh @ 0.1 mM) was 83.9%. The Ki at 11β-hsd-1 enzyme [2] was determined as 26 nM.

As to `Cc1cccc(NS(=O)(=O)N2CCCC(c3ccc(F)cc3)C2)n1` (stereo not drawn) [Example 22], the inhibition at 0.1 µM on 11β-hsd-1 enzyme [1] was 90%. The same compound had a Ki on 11β-hsd-1 enzyme [2] of 22 nM.

In the case of `CCc1cccc(NS(=O)(=O)N2CCC(c3ccccc3OC)CC2)n1` [Example 119, N-(6-ethylpyridin-2-yl)-4-(2-methoxyphenyl)pipendine-1-sulfonamide], the inhibition at 11β-hsd-1 enzyme [1] (read-out: % Inh @ 0.1 mM) came out at 93.1%. The same compound yielded a Ki at 11β-hsd-1 enzyme [2] of 37 nM.

For the compound `CCc1cccc(NS(=O)(=O)N2CCC(C3CCN(C(=O)c4ccc(F)cc4)CC3)CC2)n1` [Example 108, N-(6-ethylpyridin-2-yl)-1′-(4-fluorobenzoyl)-44′-bipiperidine-1-sulfonamide], the inhibition on 11β-hsd-1 enzyme [1] (read-out: % Inh @ 0.1 mM) was 89%. Also, the inhibition constant (Ki) at 11β-hsd-1 enzyme [2] is 60 nM.

Take `O=S(=O)(Nc1ccc2ccccc2n1)N1CCOC(COc2cc(F)cc(F)c2)C1` (stereo not drawn) [Example 100, 2-[(35-difluorophenoxy)meth-yl]-N-quinolin-2-ylmorpholine-4-sulfonamide]: the inhibition on 11β-hsd-1 enzyme [1] (read-out: % Inh @ 0.1 mM) was determined as 90.6%. The affinity on 11β-hsd-1 enzyme [2] corresponds to a Ki of 59 nM.
